The text below walks through data of patent US20230174523A1, “BENZENESULFONAMIDE DERIVATIVES AS TRAP1 MODULATORS AND USES THEREOF” (Amathus Therapeutics, Inc., priority 2020, published 2023).

The target in the test is T1, TRAP1 enzyme (Homo sapiens, UniProt Q12931).
T1 sequence (Q12931 60-704): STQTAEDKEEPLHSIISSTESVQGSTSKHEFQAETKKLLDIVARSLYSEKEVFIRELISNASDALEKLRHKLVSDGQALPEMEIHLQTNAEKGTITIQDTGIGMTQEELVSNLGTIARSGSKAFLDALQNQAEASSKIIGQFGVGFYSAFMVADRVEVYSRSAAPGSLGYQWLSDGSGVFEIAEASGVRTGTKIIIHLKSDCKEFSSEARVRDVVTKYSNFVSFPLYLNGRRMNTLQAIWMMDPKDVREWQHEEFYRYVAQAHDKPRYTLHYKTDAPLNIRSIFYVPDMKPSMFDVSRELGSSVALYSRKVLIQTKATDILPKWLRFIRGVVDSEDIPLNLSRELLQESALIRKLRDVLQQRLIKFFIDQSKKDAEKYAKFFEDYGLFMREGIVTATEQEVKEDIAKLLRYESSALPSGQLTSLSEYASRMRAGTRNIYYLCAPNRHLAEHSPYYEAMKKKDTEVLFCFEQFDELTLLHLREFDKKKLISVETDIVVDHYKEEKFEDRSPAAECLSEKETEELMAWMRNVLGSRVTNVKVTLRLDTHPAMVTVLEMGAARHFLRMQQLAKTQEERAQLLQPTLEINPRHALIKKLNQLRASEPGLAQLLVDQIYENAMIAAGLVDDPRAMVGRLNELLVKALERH
The experiment in a line: Malachite green phosphate assay of TRAP1 ATPase activity. In kind it is biochemical. The settings on record: for EC50: TRAP1 ATPase activation, 150 nM Trap1, 20 μM ATP, geometric mean, read-out: Malachite Green Fluor DRC: GeoMean EC50; for Emax: read-out: Malachite Green Fluor DRC: Mean Emax. How it is done: The Potency of test compounds to modulate the ATPase activity of TRAP1 enzyme was evaluated using malachite green phosphatase assay. The assay is based on quantification of the green complex formed between Malachite Green, molybdate and inorganic phosphate generated in the phosphatase reaction. Assays were performed using a Malachite Green assay kit. All the assays were carried out in a 96-well transparent plate. The buffer used was 50 mM HEPES (pH 7.5), 20 mM KCl, 4 mM MgCl2 and 0.05% BSA. 150 nM Trap1 enzyme was incubated with various concentrations of the test compound (0.78 μM-100 μM) at 37° C. for 30 mins. 20 μM ATP was added to each well (except blank wells) to start the reaction and the plate was then incubated at 37° C. for 180 mins. 10 μl of the reaction volume of each sample was then transferred to a white 384-well proxiplate in quadruplets. 2.5 μl of Malachite Green reagent was added to all the wells and the plate was equilibrated for 15 mins. The reaction was stopped by adding 12% H2SO4 and the plate was read for fluorescence at 620 nm (λex=573 nm). The amount of phosphate released was estimated from a phosphate standard curve generated at the same experimental conditions. Emax (Maximal percent activation) and EC50 (concentration of test compound for half maximal activation) were estimated by fitting the dose response data to a sigmoidal curve fitting equation using Graphpad Prism software V.7.0.

For `CCCN(c1ccc(Br)cc1)S(=O)(=O)c1cccc(NC(=O)c2ncco2)c1` [Compound 303], the half-maximal effective concentration (EC50) (in general, the concentration at which the effect is half-maximal) was 10 to 20 µM and the maximum response (Emax) (usually the greatest response seen or fitted, relative to the assay's reference) was 160 to 199%.

For `COc1ccc(NC(=O)c2cnc(C(F)(F)F)[nH]2)cc1S(=O)(=O)Nc1ccccc1` [Compound 223], the EC50 fell in the range of 10 to 20 µM and the Emax fell in the range of 160 to 199%.

Take `COc1ccc(NC(=O)c2cnc[nH]2)cc1S(=O)(=O)N(CCOCCOCCOCCN)c1ccc(Br)cc1` [Compound 546]: the EC50 is 20 to 100 µM and the Emax lay in the range of 160 to 199%.

On to `COc1ccc(NC(=O)c2ccc(-c3ccccc3)o2)cc1S(=O)(=O)Nc1ccc(Cl)cc1` [Compound 499], for which the half-maximal effective concentration (EC50) lay within 20 to 100 µM and the maximum response (Emax) was in the range of 160 to 199%.

Take `COc1ccc(NC(=O)c2cnc[nH]2)cc1S(=O)(=O)N(CCOCCOCCBr)c1ccc(Br)cc1` [Compound 286]: the EC50 is under 10 µM and the maximum response (Emax) was 160 to 199%.

As to `COc1ccc(NC(=O)c2cnc(-c3ccccc3)[nH]2)cc1S(=O)(=O)N(CCOCCOCCOCCN)c1ccc(Br)cc1` [Compound 526, N-(3-(N-(2-(2-(2-(2-aminoethoxy)ethoxy)ethoxy)ethyl)-N-(4-bromophenyl)sulfamoyl)-4-methoxyphenyl)-2-phenyl-1H-imidazole-5-carboxamide], the EC50 fell in the range of 20 to 100 µM and the maximal response (Emax) is over 300%.

In the case of `COc1ccc(NC(=O)c2ncc(-c3ccccc3)o2)cc1S(=O)(=O)Nc1c(C)cccc1C` [Compound 423], the concentration for a half-maximal effect (EC50) was under 10 µM and the Emax fell in the range of 160 to 199%.

With `COc1ccc(NC(=O)c2cc3sccc3s2)cc1S(=O)(=O)Nc1c(C)cccc1C` [Compound 1051], the EC50 is under 10 µM and the Emax lay within 160 to 199%.

For `CC(C)c1ccc(NC(=O)c2ncc(-c3ccccc3)o2)cc1S(=O)(=O)Nc1ccc(Cl)cc1` [Compound 580], the EC50 was under 10 µM and the Emax lay in the range of 123 to 159%.

On to `COc1ccc(NC(=O)c2ncco2)cc1S(=O)(=O)N(CCCCCC(=O)O)c1ccc(Br)cc1` [Compound 250], for which the EC50 is 10 to 20 µM and the Emax was in the range of 200 to 300%.

Take `COc1ccc(NC(=O)c2nnc(-c3ccccc3)s2)cc1S(=O)(=O)Nc1ccc(Cl)cc1` [Compound 500]: the 50% effective concentration (EC50) lay within 10 to 20 µM and the maximal effect (Emax) was 200 to 300%.

As to `COc1ccc(NC(=O)c2ccccc2N2CCOCC2)cc1S(=O)(=O)Nc1c(C)cccc1C` [Compound 1048], the EC50 was 10 to 20 µM and the Emax lay in the range of 160 to 199%.

`C=C(C)c1nc(C(=O)Nc2ccc(OC)c(S(=O)(=O)Nc3ccc(Cl)cc3)c2)oc1-c1ccccc1` [Compound 545]: the EC50 was under 10 µM and the Emax lay in the range of 123 to 159%.

Take `COc1ccc(-c2ncc(C(=O)Nc3ccc(OC)c(S(=O)(=O)Nc4ccc(Br)cc4)c3)[nH]2)cc1` [Compound 417]: the concentration giving a half-maximal response (EC50) was under 10 µM and the maximal response (Emax) fell in the range of 123 to 159%.

For the molecule `COc1ccc(NC(=O)c2cnc[nH]2)cc1S(=O)(=O)Nc1ccc(C(C2N=N2)C(F)(F)F)cc1` (stereo not drawn) [Compound 398], the concentration giving a half-maximal response (EC50) was in the range of 20 to 100 µM and the maximal response (Emax) lay in the range of 123 to 159%.

Regarding `Cc1ncoc1C(=O)Nc1cccc(S(=O)(=O)N2CCC(C)(C)c3cc(Cl)ccc32)c1` [Compound 517], the EC50 lay in the range of 10 to 20 µM and the Emax was in the range of 160 to 199%.

For the molecule `Cc1ccc(NS(=O)(=O)c2cccc(NC(=O)c3cnc(C(F)(F)F)[nH]3)c2)cc1` [Compound 271], the EC50 lay within 10 to 20 µM and the Emax fell in the range of 160 to 199%.

Regarding `COc1ccc(NC(=S)c2ncc(-c3ccccc3)o2)cc1S(=O)(=O)Nc1ccc(Cl)cc1` [Compound 583, N-(3-(N-(4-chlorophenyl)sulfamoyl)-4-methoxyphenyl)-5-phenyloxazole-2-carbothioamide], the EC50 lay within 10 to 20 µM and the Emax was in the range of 160 to 199%.

With `COc1ccc(NC(=O)c2nccs2)cc1S(=O)(=O)Nc1ccc(Cl)cc1` [Compound 349], the EC50 was 20 to 100 µM and the Emax was in the range of 200 to 300%.

In the case of `CCOC(=O)Cc1ccc(NC(=O)c2cnccc2C)cc1S(=O)(=O)Nc1ccc(C)cc1` [Compound 317], the EC50 was 10 to 20 µM and the Emax lay in the range of 160 to 199%.

On to `COc1ccc(NC(=O)c2cnc(C(F)(F)F)[nH]2)cc1S(=O)(=O)Nc1ccc(C(C)(C)C)cc1` [Compound 360], for which the EC50 lay within 20 to 100 µM and the maximal response (Emax) is 200 to 300%.

For `Cc1ncoc1C(=O)Nc1cccc(S(=O)(=O)N2CCOc3cc(Cl)ccc32)c1` [Compound 479], the EC50 lay within 10 to 20 µM and the Emax was in the range of 160 to 199%.

On to `Cc1cccc(C)c1NS(=O)(=O)c1cc(NC(=O)c2cnc(-c3ccccc3)[nH]2)ccc1F` [Compound 436], for which the concentration giving a half-maximal response (EC50) was under 10 µM and the Emax was 160 to 199%.

For `CCOC(=O)CCCCCN(c1ccc(Br)cc1)S(=O)(=O)c1cc(NC(=O)c2ncco2)ccc1OC` [Compound 247], the EC50 is under 10 µM and the Emax fell in the range of 123 to 159%.

Turning to `CC(C)c1ccc(NC(=O)c2cnc(-c3ccccc3)o2)cc1S(=O)(=O)Nc1ccc(Cl)cc1` [Compound 576], the EC50 lay in the range of 10 to 20 µM and the maximum response (Emax) was in the range of 160 to 199%.

As for `CCc1ccc(NC(=O)c2cnccc2C)cc1S(=O)(=O)Nc1ccc(C)cc1` [Compound 277], the EC50 lay in the range of 10 to 20 µM and the Emax is 123 to 159%.

Turning to `CN(c1ccc(Br)cc1)S(=O)(=O)c1cc(NC(=O)c2cnc[nH]2)ccc1OCCCCCCO` [Compound 342], the 50% effective concentration (EC50) lay in the range of 20 to 100 µM and the maximum response (Emax) lay within 200 to 300%.

As for `COc1ccc(NC(=O)c2cnc(C(F)(F)F)[nH]2)cc1S(=O)(=O)N(CCCCCN1CCOCC1)c1ccc(Br)cc1` [Compound 433], the EC50 was in the range of 10 to 20 µM and the Emax lay in the range of 123 to 159%.

Turning to `COc1ccc(NC(=O)c2cnc(C(F)(F)F)[nH]2)cc1S(=O)(=O)Nc1ccc(Br)cc1` [Compound 105], the EC50 fell in the range of 20 to 100 µM and the Emax was in the range of 200 to 300%.

Turning to `O=C(Nc1cccc(S(=O)(=O)Nc2ccc(Br)cc2)c1)c1cnc(-c2ccccc2)[nH]1` [Compound 169], the EC50 was 10 to 20 µM and the maximum response (Emax) was in the range of 200 to 300%.

For `CCOC(=O)CCCCCN(c1ccc(Br)cc1)S(=O)(=O)c1cc(NC(=O)c2cnc(C(F)(F)F)[nH]2)ccc1OC` [Compound 263], the EC50 is 10 to 20 µM and the Emax lay in the range of 160 to 199%.

As for `O=C(Nc1ccc(OC(F)(F)F)c(S(=O)(=O)Nc2c(Cl)cccc2Cl)c1)c1cnc(-c2ccccc2)o1` [Compound 655], the EC50 was under 10 µM and the Emax lay within 160 to 199%.

In the case of `CN(c1ccc(Br)cc1)S(=O)(=O)c1cc(NC(=O)c2cnc[nH]2)ccc1OCCCCCC[P+](c1ccccc1)(c1ccccc1)c1ccccc1` [Compound 363], the EC50 is under 10 µM and the maximal effect (Emax) is over 300%.

Take `COc1ccc(NC(=O)c2cnc(-c3ccccc3)[nH]2)cc1S(=O)(=O)Nc1ccc(N=[N+]=[N-])cc1` [Compound 380, N-(3-(N-(4-azidophenyl)sulfamoyl)-4-methoxyphenyl)-2-phenyl-1H-imidazole-5-carboxamide]: the concentration for a half-maximal effect (EC50) is under 10 µM and the Emax was in the range of 160 to 199%.

For the molecule `CCOC(=O)/C=C/c1ccc(NC(=O)c2ncc(-c3ccccc3)o2)cc1S(=O)(=O)Nc1ccc(Cl)cc1` [Compound 634], the EC50 was under 10 µM and the maximal effect (Emax) was in the range of 123 to 159%.

Consider `COc1ccc(NC(=O)c2cnc(-c3ccccc3)[nH]2)cc1S(=O)(=O)N(CCCCCCO)c1ccc(Br)cc1` [Compound 253], for which the EC50 fell in the range of 10 to 20 µM and the Emax is 160 to 199%.
